33 compounds from US4393228A, “Epoxysuccinic acid derivatives” (Taisho Pharmaceutical Co., Ltd., priority 1977, dated 1983) can be followed below.

SMILES strings stand for the structures.

The target in this experiment is T1, papain (Carica papaya, UniProt P00784).
T1 construct: purchased Sigma Chem. Co
T1 sequence (P00784 134-345): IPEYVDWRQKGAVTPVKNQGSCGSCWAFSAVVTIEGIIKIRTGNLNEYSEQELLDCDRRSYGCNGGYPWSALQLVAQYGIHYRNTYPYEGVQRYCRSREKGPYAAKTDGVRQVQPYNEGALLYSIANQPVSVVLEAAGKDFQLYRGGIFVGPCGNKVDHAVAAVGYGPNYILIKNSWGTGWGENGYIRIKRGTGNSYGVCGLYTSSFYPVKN
Briefly: Papain inhibitory activity (milk casein digestion). The experiment is classed as biochemical. The following applies: papain 80 μg/ml 0.5 ml, cysteine, pH 6.8, 1% milk casein, 40° C., 10 minutes. The method, boiled down: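 Papain (80 μg/ml stock) preincubated 15 min at 40 °C with inhibitor, cysteine/EDTA activator and phosphate buffer pH 6.8. Then 1% milk casein digested 10 min at 40 °C, stopped with trichloroacetic acid and filtered; filtrate absorbance at 280 nm gives percent inhibition versus no-inhibitor control.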
As for `O=C(O)[C@H]1O[C@@H]1C(=O)OCC=Cc1ccccc1` (relative stereo) [EP-134, 3'-phenyl-2'-propenyl potassium epoxysuccinate], the “ID50 (amount of inhibitor for 50% inhibition)” value is reported as 0.71 γ.
In the case of `COC(=O)[C@H]1O[C@@H]1C(=O)O` (relative stereo) [EP-135, methyl hydrogen epoxysuccinate] it was 12.20 γ; in that of `O=C(O)[C@H]1O[C@@H]1C(=O)Oc1ccccc1` (relative stereo) [EP-136, phenyl hydrogen epoxysuccinate], 2.72 γ.
The result for `CCCOC(=O)[C@H]1O[C@@H]1C(=O)O` (relative stereo) [EP-138, n-propyl potassium epoxysuccinate] reads 0.82 γ; that for `CC(C)OC(=O)[C@H]1O[C@@H]1C(=O)O` (relative stereo) [EP-139, i-propyl potassium epoxysuccinate], 0.78 γ.
In the case of `C=CCOC(=O)[C@H]1O[C@@H]1C(=O)O` (relative stereo) [EP-140, allyl potassium epoxysuccinate] it was 0.92 γ.
For the compound `C#CCOC(=O)[C@H]1O[C@@H]1C(=O)O` (relative stereo) [EP-141, propargyl potassium epoxysuccinate], the “ID50 (amount of inhibitor for 50% inhibition)” value is given as 1.45 γ.
In the case of `CCCCOC(=O)[C@H]1O[C@@H]1C(=O)O` (relative stereo) [EP-142, n-butyl potassium epoxysuccinate] it was 0.29 γ.
The result for `CCCCCCCCCCCCOC(=O)[C@H]1O[C@@H]1C(=O)O` (relative stereo) [EP-145, n-dodecyl potassium epoxysuccinate] reads 0.14 γ.
As to `CCCOC(=O)[C@H]1O[C@@H]1C(=O)NCC(=O)OCc1ccccc1` (relative stereo) [EP-153, N-(3-n-propyloxycarbonyloxirane-2-carbonyl)-glycine benzyl ester], the “ID50 (amount of inhibitor for 50% inhibition)” value was 17.90 γ.
The result for `CCOC(=O)[C@H]1O[C@@H]1C(=O)NCC(=O)OCc1ccccc1` (relative stereo) [EP-154, N-(3-ethoxycarbonyloxirane-2-carbonyl)-glycine benzyl ester] reads 43.90 γ; that for `CCOC(=O)[C@H]1O[C@@H]1C(=O)NCCC(=O)OCc1ccccc1` (relative stereo) [EP-157, N-(3-ethoxycarbonyloxirane-2-carbonyl)-β-alanine benzyl ester], 71.50 γ.
In the case of `CCOC(=O)CCCNC(=O)[C@@H]1O[C@H]1C(=O)OCc1ccc(Cl)cc1` (relative stereo) [EP-189, N-(3-p-chlorobenzyloxycarbonyloxirane-2-carbonyl)-γ-aminobutylic acid ethyl ester], the “ID50 (amount of inhibitor for 50% inhibition)” value was 10.58 γ.
In the case of `O=C(CNC(=O)[C@@H]1O[C@H]1C(=O)OCCC1CCCCC1)OCc1ccccc1` (relative stereo) [EP-207, N-[3-(2'-cyclohexylethoxy)-carbonyloxirane-2-carbonyl]-glycine benzyl ester] it was 6.52 γ.
In the case of `O=C(CCNC(=O)[C@@H]1O[C@H]1C(=O)OCCCCC1CCCCC1)OCc1ccccc1` (relative stereo) [EP-208, N-[3-(4'-cyclohexylbutoxy)-carbonyloxirane-2-carbonyl]-β-alanine benzyl ester] it was 13.12 γ; in that of `CCOC(=O)CNC(=O)[C@@H]1O[C@H]1C(=O)OCc1ccc2c(Br)cccc2c1` (relative stereo) [EP-220, N-[3-(5'-bromo-2-naphthylmethoxy)-carbonyloxirane-2-carbonyl]-glycine ethyl ester], 9.86 γ.
On to `O=C(OC1CCCC(Br)C1)C1OC1C(=O)OC1CCCC(Br)C1` (stereo not drawn) [EP-9, di-3'-cis-bromocyclohexyl epoxysuccinate], for which the “ID50 (amount of inhibitor for 50% inhibition)” value was 2.20 γ.
Turning to `O=C(O)C1OC1C(=O)OC1CCCC(Br)C1` (stereo not drawn) [EP-10, 3'-cis-bromocyclohexyl potassium epoxysuccinate], the “ID50 (amount of inhibitor for 50% inhibition)” value is 0.06 γ.
In the case of `O=C(OC1CC(Cl)CCC1Br)C1OC1C(=O)OC1CC(Cl)CCC1Br` (stereo not drawn) [EP-11, di-2'-cis-bromo-5'-trans-chlorocyclohexyl epoxysuccinate] it was 2.50 γ; in that of `O=C(O)C1OC1C(=O)OC1CC(Cl)CCC1Br` (stereo not drawn) [EP-12, 2'-cis-bromo-5'-trans-chlorocyclohexyl potassium epoxysuccinate], 0.07 γ; in that of `CC1CCCC(C)C1OC(=O)C1OC1C(=O)OC1C(C)CCCC1C` (stereo not drawn) [EP-13, di-2',6'-trans-dimethylcyclohexyl epoxysuccinate], 2.50 γ.
In the case of `CC1CCCC(C)C1OC(=O)C1OC1C(=O)O` (stereo not drawn) [EP-14, 2',6'-trans-dimethylcyclohexyl potassium epoxysuccinate] it was 0.10 γ; in that of `O=C(OC1CCC(Br)C(Cl)C1)C1OC1C(=O)OC1CCC(Br)C(Cl)C1` (stereo not drawn) [EP-21, di-3'-cis-chloro-trans-4'-bromocyclohexyl epoxysuccinate], 2.46 γ.
The result for `O=C(O)C1OC1C(=O)OC1CCC(Br)C(Cl)C1` (stereo not drawn) [EP-22, 3'-cis-chloro-4'-trans-bromocyclohexyl potassium epoxysuccinate] reads 0.12 γ; that for `O=C(OC1CC(Cl)CC(Cl)C1)C1OC1C(=O)OC1CC(Cl)CC(Cl)C1` (stereo not drawn) [EP-23, di-3',5'-trans-dichlorocyclohexyl epoxysuccinate], 2.45 γ.
As for `O=C(O)C1OC1C(=O)OC1CC(Cl)CC(Cl)C1` (stereo not drawn) [EP-24, 3',5'-trans-dichlorocyclohexyl potassium epoxysuccinate], the “ID50 (amount of inhibitor for 50% inhibition)” value is listed as 0.09 γ.
For the compound `O=C(OC1CCC(Cl)C1)C1OC1C(=O)OC1CCC(Cl)C1` (stereo not drawn) [EP-29, di-3'-cis-chlorocyclopentyl epoxysuccinate], the “ID50 (amount of inhibitor for 50% inhibition)” value is listed as 3.12 γ.
In the case of `O=C(O)C1OC1C(=O)OC1CCC(Cl)C1` (stereo not drawn) [EP-30, 3'-cis-chlorocyclopentyl potassium epoxysuccinate] it was 0.07 γ; in that of `CC1CCC(OC(=O)C2OC2C(=O)OC2CCC(C)C2)C1` (stereo not drawn) [EP-31, di-3'-trans-methylcyclopentyl epoxysuccinate], 3.25 γ.
In the case of `CC1CCC(OC(=O)C2OC2C(=O)O)C1` (stereo not drawn) [EP-32, 3'-trans-methylcyclopentyl potassium epoxysuccinate] it was 0.09 γ; in that of `CC(OC(=O)C1OC1C(=O)OC(C)C1CCCC1)C1CCCC1` (stereo not drawn) [EP-45, di-1-cyclopentaneethyl epoxysuccinate], 0.23 γ.
Take `CC(OC(=O)C1OC1C(=O)O)C1CCCC1` (stereo not drawn) [EP-46, 1-cyclopentaneethyl potassium epoxysuccinate]: the “ID50 (amount of inhibitor for 50% inhibition)” value is listed as 0.08 γ.
As for `CC1(C)C2CCC1(C)C(OC(=O)C1OC1C(=O)OC1CC3CCC1(C)C3(C)C)C2` (stereo not drawn) [EP-53, dibornyl epoxysuccinate], the “ID50 (amount of inhibitor for 50% inhibition)” value was 0.45 γ.
